Laboratory results as given in the NIST ThermoML archive (doi:10.1016/j.jct.2016.09.022).
± gives the expanded uncertainty stated by the source.

Assays:
[1] = refractive index (Na D-line) (dimensionless); settings: 298.15 K; 101.33 kPa; Liquid; Standard Abbe refractometry
[2] = Liquid; for speed of sound: Frequency=1.5 MHz, Single path-length method; for mass density: 298.15 K, 101.33 kPa, Vibrating tube method

CCCO [propan-1-ol]
Settings	mass density [kg/m3]	refractive index
[1]	–	1.383 ± 0.0028
[2]	799.5 ± 1.6	–

speed of sound [m/s], [2]
Settings	283.15 K	293.15 K	303.15 K	313.15 K	323.15 K	333.15 K	343.15 K
100 kPa	1260.3 ± 2.5	1223.5 ± 2.5	1189.2 ± 2.4	1155.3 ± 2.4	1121.7 ± 2.3	1088.3 ± 2.2	1054.4 ± 2.1
5100 kPa	1287.8 ± 2.8	1252.2 ± 2.8	1219.6 ± 2.7	1186.7 ± 2.7	1153.8 ± 2.6	1122.2 ± 2.6	1090.2 ± 2.6
10100 kPa	1313.7 ± 2.8	1279.6 ± 2.8	1248.2 ± 2.7	1216.4 ± 2.7	1184.6 ± 2.7	1153.7 ± 2.6	1123.4 ± 2.6
20100 kPa	1362.3 ± 2.9	1330 ± 2.9	1300.9 ± 2.8	1271.4 ± 2.8	1241.7 ± 2.7	1212.8 ± 2.7	1183.9 ± 2.7
30100 kPa	1407.9 ± 3	1377 ± 2.9	1349.1 ± 2.9	1320.6 ± 2.8	1293 ± 2.8	1265.9 ± 2.8	1239.2 ± 2.7
40100 kPa	1450.3 ± 3	1420.8 ± 3	1394.3 ± 2.9	1366.8 ± 2.9	1340.2 ± 2.9	1314.2 ± 2.8	1289.2 ± 2.8
50100 kPa	1490.2 ± 3.1	1461.7 ± 3	1436.6 ± 3	1410.1 ± 3	1384.6 ± 2.9	1359.7 ± 2.9	1335.5 ± 2.8
60100 kPa	1527.4 ± 3.2	1500.3 ± 3.1	1476.2 ± 3.1	1450.6 ± 3	1426.4 ± 3	1402.2 ± 2.9	1379 ± 2.9
70100 kPa	1563.2 ± 3.2	1537.2 ± 3.2	1513.7 ± 3.1	1489.5 ± 3.1	1465.1 ± 3	1441.9 ± 3	1419.9 ± 3
80100 kPa	1597.2 ± 3.3	1572.1 ± 3.2	1549.5 ± 3.2	1525.9 ± 3.1	1502.3 ± 3.1	1479.3 ± 3.1	1458.2 ± 3
90100 kPa	1630 ± 3.3	1605.3 ± 3.3	1583.6 ± 3.2	1560.4 ± 3.2	1537.5 ± 3.2	1515.2 ± 3.1	1497.2 ± 3.1
95100 kPa	1645.7 ± 3.4	1621.6 ± 3.3	1600.1 ± 3.3	1577.2 ± 3.2	1554.4 ± 3.2	1532.6 ± 3.2	1512.2 ± 3.1

CO [methanol]
Settings	mass density [kg/m3]	refractive index
[1]	–	1.3263 ± 0.0027
[2]	786.5 ± 1.6	–

speed of sound [m/s], [2]
Settings	283.15 K	293.15 K	303.15 K	313.15 K	323.15 K	333.15 K	343.15 K
100 kPa	1154.3 ± 2.3	1120.6 ± 2.3	1087.4 ± 2.2	1054.5 ± 2.1	1022 ± 2.1	989.77 ± 2	–
120 kPa	–	–	–	–	–	–	957.61 ± 1.9
5100 kPa	1182 ± 2.6	1149.2 ± 2.6	1118 ± 2.5	1087 ± 2.5	1055.8 ± 2.5	1025.2 ± 2.5	994.42 ± 2.5
10100 kPa	1209.3 ± 2.6	1176.2 ± 2.6	1146.4 ± 2.5	1116.8 ± 2.5	1087.2 ± 2.5	1058 ± 2.4	1028.6 ± 2.4
20100 kPa	1258.7 ± 2.7	1227.4 ± 2.6	1199.4 ± 2.6	1171.1 ± 2.6	1143.8 ± 2.5	1117.2 ± 2.5	1090.6 ± 2.5
30100 kPa	1303.6 ± 2.8	1274.2 ± 2.7	1248.1 ± 2.7	1221.5 ± 2.6	1195.3 ± 2.6	1169.8 ± 2.5	1144.9 ± 2.5
40100 kPa	1345.2 ± 2.8	1316.8 ± 2.8	1292.5 ± 2.7	1267.3 ± 2.7	1242.7 ± 2.6	1218.6 ± 2.6	1194.9 ± 2.6
50100 kPa	1384.4 ± 2.9	1357 ± 2.8	1333.7 ± 2.8	1309.7 ± 2.8	1286.3 ± 2.7	1263.6 ± 2.7	1241 ± 2.6
60100 kPa	1421 ± 2.9	1394.9 ± 2.9	1372.8 ± 2.9	1349.4 ± 2.8	1326.6 ± 2.8	1304.8 ± 2.7	1283.5 ± 2.7
70100 kPa	1456.2 ± 3	1430.8 ± 3	1409.7 ± 2.9	1387.1 ± 2.9	1365 ± 2.8	1343.6 ± 2.8	1323.1 ± 2.8
80100 kPa	1489.1 ± 3	1464.7 ± 3	1444.6 ± 3	1422.7 ± 2.9	1401.3 ± 2.9	1380.8 ± 2.9	1361.1 ± 2.8
90100 kPa	1520.7 ± 3.1	1496.7 ± 3.1	1477.7 ± 3	1456.3 ± 3	1435.9 ± 3	1415.9 ± 2.9	1396.8 ± 2.9
95100 kPa	1536 ± 3.1	1512.3 ± 3.1	1493.8 ± 3	1472.6 ± 3	1452.3 ± 3	1432.7 ± 3	1414 ± 2.9

CCCCCCC [heptane]
Settings	mass density [kg/m3]	refractive index
[1]	–	1.3852 ± 0.0028
[2]	679.5 ± 1.4	–

speed of sound [m/s], [2]
Settings	283.15 K	293.15 K	303.15 K	313.15 K	323.15 K	333.15 K	343.15 K
100 kPa	1197.2 ± 2.6	1153.9 ± 2.5	1111.4 ± 2.5	1068.8 ± 2.4	1025.9 ± 2.3	983.91 ± 2.2	942.89 ± 2.2
5100 kPa	1231.5 ± 3	1189.6 ± 2.9	1148.8 ± 2.9	1108.9 ± 2.9	1068.6 ± 2.9	1028.8 ± 2.9	989.64 ± 2.9
10100 kPa	1263.8 ± 3	1223.4 ± 2.9	1184.1 ± 2.9	1145.2 ± 2.9	1107.3 ± 2.8	1069.8 ± 2.8	1032.5 ± 2.8
20100 kPa	1323.2 ± 3	1284.8 ± 3	1248.7 ± 3	1212.3 ± 2.9	1176.7 ± 2.9	1141.9 ± 2.9	1108.4 ± 2.8
30100 kPa	1376.7 ± 3.1	1340.1 ± 3.1	1306.4 ± 3	1272.1 ± 3	1239 ± 2.9	1206.4 ± 2.9	1174.6 ± 2.9
40100 kPa	1426.3 ± 3.2	1391.5 ± 3.1	1359.2 ± 3.1	1326.3 ± 3	1295.3 ± 3	1264.6 ± 2.9	1234.9 ± 2.9
50100 kPa	1472.5 ± 3.2	1439 ± 3.2	1408.5 ± 3.1	1377.4 ± 3.1	1346.7 ± 3	1317.4 ± 3	1289.3 ± 3
60100 kPa	1515.6 ± 3.3	1483.3 ± 3.2	1454.5 ± 3.2	1424.7 ± 3.2	1395.2 ± 3.1	1366.6 ± 3.1	1339.5 ± 3
70100 kPa	1556.1 ± 3.4	1525.3 ± 3.3	1497.4 ± 3.3	1468.7 ± 3.2	1440.1 ± 3.2	1412.9 ± 3.1	1387 ± 3.1
80100 kPa	1593.8 ± 3.4	1564.9 ± 3.4	1538.3 ± 3.3	1510.3 ± 3.3	1482.6 ± 3.2	1456 ± 3.2	1431.2 ± 3.1
90100 kPa	1629.7 ± 3.5	1602.3 ± 3.4	1577 ± 3.4	1549.8 ± 3.4	1522.8 ± 3.3	1496.7 ± 3.3	1472.7 ± 3.2
95100 kPa	1646.4 ± 3.5	1620.6 ± 3.5	1595 ± 3.4	1568.8 ± 3.4	1542.2 ± 3.3	1516.4 ± 3.3	1492.7 ± 3.2

CCO [ethanol]
Settings	mass density [kg/m3]	refractive index
[1]	–	1.3593 ± 0.0027
[2]	785.1 ± 1.6	–

speed of sound [m/s], [2]
Settings	283.15 K	293.15 K	303.15 K	313.15 K	323.15 K	333.15 K	343.15 K
100 kPa	1198.8 ± 2.4	1163.8 ± 2.4	1129.3 ± 2.3	1094.7 ± 2.2	1060.4 ± 2.1	1027 ± 2.1	992.92 ± 2
5100 kPa	1227.7 ± 2.7	1193.5 ± 2.7	1159.8 ± 2.6	1127.7 ± 2.6	1094.5 ± 2.6	1062.7 ± 2.5	1030.2 ± 2.5
10100 kPa	1255.7 ± 2.7	1222.5 ± 2.7	1189.8 ± 2.6	1157.4 ± 2.6	1126.5 ± 2.6	1096.3 ± 2.5	1065.8 ± 2.5
20100 kPa	1306.5 ± 2.8	1275.6 ± 2.8	1245 ± 2.7	1214.7 ± 2.7	1185.2 ± 2.6	1156.9 ± 2.6	1129 ± 2.6
30100 kPa	1353.1 ± 2.9	1323.7 ± 2.8	1295 ± 2.8	1266.5 ± 2.7	1238.8 ± 2.7	1212.1 ± 2.6	1185.8 ± 2.6
40100 kPa	1397 ± 2.9	1368.7 ± 2.9	1340.6 ± 2.8	1313.5 ± 2.8	1287.5 ± 2.7	1262.3 ± 2.7	1237.5 ± 2.7
50100 kPa	1437.9 ± 3	1410.7 ± 2.9	1384.2 ± 2.9	1358.2 ± 2.9	1332.4 ± 2.8	1310.5 ± 2.8	1284.9 ± 2.7
60100 kPa	1476.1 ± 3	1449.9 ± 3	1424.6 ± 3	1399.1 ± 2.9	1374.8 ± 2.9	1351.2 ± 2.8	1328.8 ± 2.8
70100 kPa	1512.5 ± 3.1	1486.8 ± 3.1	1462.7 ± 3	1438.4 ± 3	1414.7 ± 2.9	1391.9 ± 2.9	1370.2 ± 2.9
80100 kPa	1547.2 ± 3.2	1522.1 ± 3.1	1498.1 ± 3.1	1475.7 ± 3	1452 ± 3	1429.6 ± 3	1409.5 ± 2.9
90100 kPa	1580.2 ± 3.2	1555.7 ± 3.2	1532.5 ± 3.1	1510.1 ± 3.1	1487.5 ± 3.1	1466.1 ± 3	1446.3 ± 3
95100 kPa	1596.1 ± 3.3	1571.8 ± 3.2	1549.3 ± 3.2	1526.4 ± 3.1	1504.5 ± 3.1	1483.5 ± 3.1	1464.1 ± 3
